Laboratory results published in US5780054A, “Methods for increasing the circulation half-life of protein-based therapeutics” (University of British Columbia, priority 1996, dated 1998).

Legend:
[1] = system: anti-ovalbumin IgG; assay: ELISA of plasma anti-ovalbumin IgG after 3 weekly i.v. injections (FIG. 3); format: in vivo, mouse (C3H/HeJ)
Protocol: Groups of four C3H/HeJ mice per experimental point were given the specified treatment as a single i.v. dose via a lateral tail vein. The injection, given in a volume of 200 μL, contained 50 μg of ovalbumin. In animals receiving control (protein free) liposomes, the dose was chosen based on the lipid dose given for the ovalbumin-coated liposome group. This lipid dose was approximately 45 mg/kg. In the groups receiving doxorubicin, the drug dose was approximately 8 mg/kg.
Microtitre plates (Flow Laboratories) were coated with 50 μL of 40 μg/mL ovalbumin and incubated at 4° C. overnight. The plates were washed twice (phosphate buffered saline containing 0.1% (vol/vol) TWEEN® 20) and then blocked with 2% bovine serum albumin (BSA) for 1 hour at 37° C. The plates were rinsed prior to addition of mouse plasma in a final volume of 100 μL (the extent to which the plasma was diluted depended on treatment group). […] Plates were incubated at room temperature for 30 min, washed, and the amount of plate associated β-galactosidase was determined. […] The amount of chlorophenol red produced was determined by measuring absorbance at 570 nm on a […] ® plate reader. Antibody levels were estimated on the basis of standard curves consisting of known quantities of a rabbit polyclonal anti-ovalbumin IgG (Cortex Biochemicals, Calif., USA). […]

[2] = mouse, in vivo; cited from earlier work
[3] = system: RES; details: in vivo; cited from earlier work

Substance | anti-ovalbumin IgG level [1] | maximum tolerated dose [2] | circulation lifetimes for the liposomal carrier [3] | liposome accumulation in the liver [3] | spleen and bone marrow cellularity [3]
free ovalbumin: IMJECT® (ovalbumin) obtained from Pierce | 2.1 μg/mL plasma |  |  |  | 
liposomal doxorubicin |  | greater than 60 mg doxorubicin/kg | significant increases | significant decreases | extended suppression
